Measurements: patent EP0682022B1, “Condensation products of melamine, benzotriazoles and aldehydes” (Ciba Specialty Chemicals Holding Inc., priority 1994, dated 1995)
Values after ≈ are worked out from the molar mass of the structure shown.

Test: Solubility in water
Type: physicochemical
Details: at room temperature, read-out: Löslichkeit in Wasser

solubility: 50 mg/mL (≈ 99.7 mM)
SMILES: O=C(O)C(Nc1nc(NC(C(=O)O)n2cncn2)nc(NC(C(=O)O)n2cncn2)n1)n1cncn1 (stereo not shown) [Beispiel 25]
